Laboratory results from patent US20120122212A1, “TGF-BETA PATHWAY INHIBITORS FOR ENHANCEMENT OF CELLULAR REPROGRAMMING OF HUMAN CELLS” (priority 2009, published 2012).
Like-named read-outs stand apart in the source and are kept apart here.

Legend:
Sox2 = Sox2 gene expression (Taqman, normalized to GAPDH) in neonatal human dermal fibroblasts; type: cell-based; conditions: for increase in Sox2 expression compared to cells that receive no drug treatment: daily feeding
Experimental: (§1) Neonatal human dermal fibroblasts (fibroblast cell line NHDF-3955-Neo from Lonza) are cultured under standard cell culture conditions using hFib media (DMEM, 20% Earl's 199 media, 10% FBS, Glutamax, beta-mercaptoethanol (bME)). Approximately 12,000 cells per well are plated on a 12-well plate. 24 hrs after plating, cells are daily fed with media containing 4, 10, 20, 50 or 100 μM GPI-1046 (ACC Corporation) or 1% DMSO. After 6 days, cells are collected and RNA is extracted using a Qiagen RNeasy kit. Gene expression is analyzed using specific Taqman primer-probe sets for Sox2, Oct4, and GAPDH on an ABI 7900HT. Gene expression of cells previously infected with retroviruses encoding Sox2, Oct4, Klf4, and c-Myc (“KSOM”) is also analyzed and is used for positive control purposes. The expression of Sox2 and Oct4 is normalized to the expression of housekeeping gene GAPDH. […] As also indicated in FIG. 1, cells that are treated with 50 μM or 100 μM GPI-1046 express about 5.2-fold and 5.7-fold, respectively, increases in Oct4 when compared to cells that receive no agent treatment and approximately a 3.5- and 3.8-fold increase, respectively, in relative expression of Oct4 when compared to cells that are treated with DMSO.
Neonatal human dermal fibroblasts (fibroblast cell line NHDF-3955-Neo from Lonza) are cultured under standard cell culture conditions using hFib media (DMEM, 20% Earl's 199 media, 10% FBS, Glutamax, beta-mercaptoethanol (bME)). Approximately 12,000 cells per well are plated on a 12-well plate. 24 hrs after plating, cells are daily fed with media containing 2, 5, 25 or 50 μM 616 453 (Calbiochem) or 1% DMSO. After 6 days, cells are collected and RNA is extracted using a Qiagen RNeasy kit. Gene expression is analyzed using specific Taqman primer-probe sets for Sox2 and GAPDH on an ABI 7900HT. Gene expression of cells previously infected with retroviruses encoding Sox2, Oct4, Klf4, and c-Myc (“KSOM”) is also analyzed and is used for positive control purposes. The expression of Sox2 is normalized to the expression of housekeeping gene GAPDH.
(§2) Neonatal human dermal fibroblasts (fibroblast cell line NHDF-3955-Neo from Lonza) are cultured under standard cell culture conditions using hFib media (DMEM, 20% Earl's 199 media, 10% FBS, Glutamax, beta-mercaptoethanol (bME)). Approximately 6,000 cells per well are plated on a 24-well plate. 48 hrs after plating, cells are daily fed with media containing 1 or 100 μM GPI-1046 with or without 0.5 μM Decitabine. On day 7 of treatment, cells are collected and RNA is extracted using a Qiagen RNeasy kit. Gene expression is analyzed using specific Taqman primer-probe sets for Sox2, Oct4 and GAPDH on an ABI 7900HT. The expression of Sox2 and Oct4 is normalized to the expression of housekeeping gene GAPDH.
as §2, with “LY 364947 (Tocris); for 50 μM 616 453 (Calbiochem); 1” for “GPI-1046 with”, “100 μM of A-83-01 (Tocris) or 1 or 100 μM SB 431542 (Tocris). Each treatment was performed in the presence or absence of” for “without”, “using” for “using a”, “Sox2” for “Sox2, Oct4”, “Sox2” for “Sox2 and Oct4”, “GAPDH. […] The morphology of the cells after treatment is depicted in FIG. 5.” for “GAPDH.”
Neonatal human dermal fibroblasts (fibroblast cell line NHDF-3955-Neo from Lonza) are cultured under standard cell culture conditions using hES medium, as described herein. Cells are treated with 0 μM, 2 μM, 10 μM, 50 μM, or 100 μM GPI-1046. […]

p21 = p21 gene expression (Taqman, normalized to GAPDH) in neonatal human dermal fibroblasts; type: cell-based; conditions: after 6 days
Experimental: (§3) Neonatal human dermal fibroblasts (fibroblast cell line NHDF-3955-Neo from Lonza) are cultured under standard cell culture conditions using hFib media (DMEM, 20% Earl's 199 media, 10% FBS, Glutamax, beta-mercaptoethanol (bME)). Approximately 12,000 cells per well are plated on a 12-well plate. 24 hrs after plating, cells are daily fed with media containing 4, 10 or 20 μM DIM (Sigma) or 1% DMSO. After 6 days, cells are collected and RNA is extracted using a Qiagen RNeasy kit. Gene expression is analyzed using specific Taqman primer-probe sets for Klf4, p21 and GAPDH on an ABI 7900HT. Gene expression of cells previously infected with retroviruses encoding Sox2, Oct4, Klf4, and c-Myc (“KSOM”) is also analyzed and is used for positive control purposes. The expression of Klf4 and p21 is normalized to the expression of housekeeping gene GAPDH.

Klf4 = Klf4 gene expression (Taqman, normalized to GAPDH) in neonatal human dermal fibroblasts; type: cell-based; conditions: after 6 days
Experimental: as §3

Oct4 = Oct4 gene expression (Taqman, normalized to GAPDH) in neonatal human dermal fibroblasts; type: cell-based; conditions: for increase in Oct4 compared to cells that receive no agent treatment / increase in relative expression of Oct4 compared to cells treated with DMSO: after 6 days, hFib media
Experimental: as §1, §2
Neonatal human dermal fibroblasts (fibroblast cell line NHDF-3955-Neo from Lonza) are cultured under standard cell culture conditions using hES medium, as described herein. Cells are treated with 0 μM, 2 μM, 10 μM, 50 μM, or 100 μM GPI-1046. On day 5 or day 8 after treatment, cells are collected and RNA is extracted using a Qiagen RNeasy kit. Gene expression is analyzed using specific Taqman primer-probe sets for Sox2, Oct4 and GAPDH on an ABI 7900HT. Gene expression of cells previously infected with retroviruses encoding Sox2, Oct4, Klf4, and c-Myc (“KSOM”) is also analyzed and is used for positive control purposes. The expression of Sox2 and Oct4 is normalized to the expression of housekeeping gene GAPDH. […] The morphology of cells infected with viruses encoding KSOM is depicted in FIG. 8.

human BJ fibroblasts = conditions: BJ fibroblasts (lack TERT), Day 8, reduced sensitivity compared to BJ-5Tα
From the text: In order to determine the effect of TGFβR inhibitor compounds on reprogramming we combined low multiplicity of infection (MOI) of retroviruses for three induction factor (Klf4, Sox2, and Oct ¾ or “KSO”) and four induction factor (Klf4, Sox2, Oct3/4, c-Myc or “KSOM”) reprogramming with various TGFβR inhibitors in human BJ-5Tα fibroblasts or BJ fibroblasts. […] By utilizing a low MOI infection protocol, we increased the sensitivity of the assay to detect the ability of various TGFβR inhibitor compounds to enhance the efficiency of reprogramming by three or four induction factor combinations.
Adherent BJ or BJ-5Tα (TERT-immortalized) fibroblast cells were infected “in bulk” with retroviruses for expression of the three induction factors (also referred to as “reprogramming factors”) KLF4, OCT3/4 and SOX2 (“KSO”), or the cells were infected with retroviruses for expression of KLF4, OCT4, SOX2 and c-MYC (“KSOM”), in each case at a multiplicity of infection (MOI) of 1, and transferred into 96-well plates in a serum-free human embryonic stem cell (hES) medium. […] AP activity was determined quantitatively using a chemiluminescent 1,2-dioxetane-phosphate substrate, which upon dephosphorylation by AP forms a metastable phenolate anion intermediate that decomposes emitting light quantified by a microplate luminometer.

human BJ-5Tα fibroblasts = conditions: Day 8
Experimental: In the case of compound 616452, cells KSO and KSOM-infected BJ-5Tα fibroblasts were fixed by 4% paraformaldehyde at Day 8, and then incubated with 50 μl 1-Step NBT/BCIP for 20 minutes for AP staining AP staining-positive colonies were counted (see FIGS. 15-16).

mouse fibroblasts = conditions: cited from earlier work
[1] = 100 μM with 0.5 μM Decitabine, day 7 of treatment
[2] = 100 μM, no Decitabine, day 7 of treatment

With `Cc1cccc(-c2nc(C(C)(C)C)[nH]c2-c2ccc3c(c2)OCO3)n1` [616 453] the “relative Sox2 expression” value (Sox2; 1 μM, day 7 of treatment) was “an increase in relative Sox2 expression”, the “relative Sox2 expression” value (Sox2; 50 μM plus 0.5 μM Decitabine, day 7 of treatment) was “an increase in relative Sox2 expression” and the “Sox2 expression compared to cells that receive no treatment” value (Sox2; 2, 5, 25 or 50 μM, after 6 days) was “an increase in Sox2 expression”. For the same molecule, the “relative Sox2 expression compared to cells treated with DMSO” value (Sox2; 2, 5 and 50 μM, after 6 days) was “an increase in relative Sox2 expression”.

For `Cc1cccc(-c2nn(C(=S)Nc3ccccc3)cc2-c2ccnc3ccccc23)n1` [A-83-01], the “relative expression of Sox2 compared to control cells” value (Sox2; 1 or 100 μM, absence of Decitabine, day 7 of treatment) was “increased relative expression of Sox2” and the “relative Sox2 expression compared to control cells” value (Sox2; 1 or 100 μM, presence of 0.5 μM Decitabine, day 7 of treatment) was “a slight increase of relative Sox2 expression”.

In the case of `c1ccc2c(Cc3c[nH]c4ccccc34)c[nH]c2c1` [DIM], the “increase in p21 expression relative to cells treated with no agent” value (p21; 4 μM) is reported as “approximately 2 fold”, the “increase in p21 expression compared to cells treated with no agent” value (p21; 10 μM) is reported as “approximately 2 fold” and the “increase in Klf4 expression relative to cells treated with no agent” value (Klf4; 4 μM) is reported as “approximately 2 fold”. The “increase in Klf4 expression compared to cells treated with no agent” value (Klf4; 10 μM) was roughly 3.2 fold.

With `CCC(C)(C)C(=O)C(=O)N1CCCC1C(=O)OCCCc1cccnc1` (centres unmarked) [GPI-1046] the “levels of Sox2, Oct3/4 or both versus cells treated with no agent” value (Sox2; 4 μM, 10 μM, or 20 μM, after 6 days, hFib media) was “higher levels of Sox2, Oct3/4 or both”, the “increase of relative Sox2 expression compared to cells treated with DMSO” value (Sox2; 50 μM or 100 μM, after 6 days, hFib media) was roughly 1.6 fold and the “increase in Sox2 expression compared to cells that receive no drug treatment” value (Sox2; 50 μM, after 6 days, hFib media) was 4.4 fold. For the same molecule, the “Sox2 expression compared to control cells” value (Sox2; [1]) was “slightly increased expression”, the “relative Sox2 expression compared to control cells” value (Sox2; 100 μM, Day 5, hES medium) was “an increase in relative Sox2 expression” and the “relative Sox2 expression compared to cells that do not receive drug treatment” value (Sox2; 100 μM, Day 8, hES medium) was “increases in relative Sox2 and Oct4 expression”. The “increase in Sox2 expression compared to cells that receive no drug treatment” value (Sox2; 100 μM, after 6 days, hFib media) was 4.5 fold, the “increase in Sox2 expression compared to control cells” value (Sox2; [2]) was roughly 3.5 fold and the “increase in Oct4 compared to cells that receive no agent treatment” value (Oct4; 50 μM) was “about 5.2 fold”. For the same molecule, the “increase in relative expression of Oct4 compared to cells treated with DMSO” value (Oct4; 50 μM) was roughly 3.5 fold, the “Oct4 expression compared to control cells” value (Oct4; [1]) was “slightly increased expression” and the “relative Oct4 expression compared to cells that do not receive drug treatment” value (Oct4; 100 μM, Day 8, hES medium) was “increases in relative Sox2 and Oct4 expression”. For the same molecule, the “increase in Oct4 compared to cells that receive no agent treatment” value (Oct4; 100 μM) was roughly 5.7 fold, the “increase in relative expression of Oct4 compared to cells treated with DMSO” value (Oct4; 100 μM) was roughly 3.8 fold and the “increase in Oct4 expression compared to control cells” value (Oct4; [2]) was roughly 4.3 fold.

With `NC(=O)c1ccc(-c2nc(-c3ccc4c(c3)OCO4)c(-c3ccccn3)[nH]2)cc1` [SB 431542] the “relative Sox2 expression” value (Sox2; 100 μM plus 0.5 μM Decitabine, day 7 of treatment) was “an increase in relative Sox2 expression”.

In the case of `Cc1cccc(-c2n[nH]cc2-c2ccc3ncccc3n2)n1` [compound 616452], the alkaline phosphatase activity (human BJ fibroblasts; four factor (KSOM) reprogramming) is reported as “increased alkaline phosphatase activity”, the alkaline phosphatase activity (human BJ fibroblasts; three factor (KSO) reprogramming) is reported as “increased alkaline phosphatase activity” and the “increase in number of AP positive colonies” value (human BJ-5Tα fibroblasts; KSO-infected BJ-5Tα fibroblasts) is reported as “greater than ten fold”. For the same molecule, the “increase in number of AP positive colonies” value (human BJ-5Tα fibroblasts; KSOM-infected BJ-5Tα fibroblasts) was “approximately five fold”.

B1: Wnt3a: Wnt cell signaling molecule (protein, UniProt P56704 19-352, looked up)
Protein Wnt-3a: SYPIWWSLAVGPQYSSLGSQPILCASIPGLVPKQLRFCRNYVEIMPSVAEGIKIGIQECQHQFRGRRWNCTTVHDSLAIFGPVLDKATRESAFVHAIASAGVAFAVTRSCAEGTAAICGCSSRHQGSPGKGWKWGGCSEDIEFGGMVSREFADARENRPDARSAMNRHNNEAGRQAIASHMHLKCKCHGLSGSCEVKTCWWSQPDFRAIGDFLKDKYDSASEMVVEKHRESRGWVETLRPRYTYFKVPTERDLVYYEASPNFCEPNPETGSFGTRDRTCNVSSHGIDGCDLLCCGRGHNARAERRREKCRCVFHWCCYVSCQECTRVYDVHTCK
In the case of B1, the “enhancement of reprogramming efficiency” value (mouse fibroblasts; mouse fibroblasts in the presence of factors Oct4, Sox2 and Klf4) is given as “about 20 fold” and the “enhancement of reprogramming efficiency” value (mouse fibroblasts; mouse fibroblasts with Oct4, Sox2, Klf4 and c-Myc) is given as 1.2 fold.
